For one experiment, the target named is KRAS-G12D (Homo sapiens, UniProt P01116, G12D). In words: SOS-catalyzed nucleotide exchange assay (Procedure A, TR-FRET), KRAS-G12D. The following applies: nucleotide exchange, read-out: KRAS G12D GNE IC50. The class given is biochemical. The essentials:
(§1)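 Signal ratio (520/495 nm, excitation 340 nm) reports Bodipy-GDP retention on biotinylated RAS after SOS-catalyzed exchange with 3 mM GTP. SOS was 40 nM, except 160 nM for G12V. Room-temperature exchange lasted 60 min (90 min for G12V), following a 60 min compound preincubation.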
A general note: In TR-FRET formats the signal depends on donor and acceptor labels being close together.

A further experiment deals with AsPC-1 cells. Nature of the experiment: Cellular phospho-ERK assay, AsPC-1 cells (homozygous KRAS-G12D). Type of experiment: cell-based. The following applies: Homo sapiens, ASPC1, 2 h, read-out: AsPC1 pERK IC50. The essentials:
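p-ERK/total ERK ratio, measured by AlphaLISA SureFire Ultra multiplex in lysates, was fitted to a 4-parameter logistic model for IC50. Compound exposure was 2 h at 37° C, 5% CO2, 10-point 1:3 dilutions from 30 μM final, on cells plated the previous night.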

In the next experiment the target is KRAS-G12V (Homo sapiens, UniProt P01116, G12V). In words: SOS-catalyzed nucleotide exchange assay (Procedure A, TR-FRET), KRAS-G12V. Type of experiment: biochemical. The conditions noted are these: nucleotide exchange, read-out: KRAS G12V GNE IC50. In outline:
as §1

Another experiment deals with KRAS-WT (Homo sapiens, UniProt P01116). Nature of the experiment: SOS-catalyzed nucleotide exchange assay (Procedure A, TR-FRET), KRAS-WT. Type of experiment: biochemical. The conditions noted are these: nucleotide exchange, read-out: KRAS WT GNE IC50. In outline:
as §1

The pIC50 is the IC50 on a negative log10 scale, so that one unit is a factor of ten.

Each structure is given as a SMILES string. pIC50: −log10 of the molar value. Where two headings read alike, the source gives them in different places.

KRAS-G12V, sequence (P01116 with tags, fused parts or gaps isoform P01116-2 G12V): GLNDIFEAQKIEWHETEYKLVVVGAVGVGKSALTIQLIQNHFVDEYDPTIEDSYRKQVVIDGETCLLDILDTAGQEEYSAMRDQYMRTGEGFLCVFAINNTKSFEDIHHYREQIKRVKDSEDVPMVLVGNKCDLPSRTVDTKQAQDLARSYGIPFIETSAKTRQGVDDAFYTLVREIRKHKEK
KRAS-G12D, sequence (P01116 with tags, fused parts or gaps isoform P01116-2 G12D): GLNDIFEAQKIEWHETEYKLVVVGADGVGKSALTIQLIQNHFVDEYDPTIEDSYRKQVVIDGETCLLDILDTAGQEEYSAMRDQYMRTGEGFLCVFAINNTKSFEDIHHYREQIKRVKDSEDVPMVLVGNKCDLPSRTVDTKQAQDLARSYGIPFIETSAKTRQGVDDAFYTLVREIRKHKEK
KRAS-WT, sequence (P01116 with tags, fused parts or gaps isoform P01116-2): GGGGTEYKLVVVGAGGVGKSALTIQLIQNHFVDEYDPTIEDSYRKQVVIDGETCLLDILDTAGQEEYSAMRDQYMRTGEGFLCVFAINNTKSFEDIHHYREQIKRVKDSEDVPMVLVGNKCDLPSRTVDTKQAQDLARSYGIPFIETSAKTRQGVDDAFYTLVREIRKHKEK

Consider `C[C@@]1(O)COCCN(c2nc(OC[C@]3(CN4C[C@H]5COC[C@H]5C4)CC3(F)F)nc3sc4c(-c5c(C6(F)CC6)c(Cl)cc6[nH]ncc56)nccc4c23)C1` [Ex-235, (6S)-4-(8-(6-chloro-5-(1-fluorocyclopropyl)-1H-indazol-4-yl)-2-(((R)-2,2-difluoro-1-(((3aR,6aS)-tetrahydro-1H-furo[3,4-c]pyrrol-5(3H)-yl)methyl)cyclopropyl)metho-xy)pyrido[4′,3′:4,5]thieno[2,3-d]pyrimidin-4-yl)-6-methyl-1,4-oxazepan-6-ol], for which the pIC50 at KRAS-G12D is 8.41; with AsPC-1 cells (2 hours compound incubation) it was 6.69; on KRAS-G12V, 7.71; on KRAS-WT, 7.50.
In the case of `C[C@@]1(O)COCCN(c2nc(OC[C@@]34CCCN3C[C@H](F)C4)nc3sc4c(-c5c6ccccc6cc6[nH]ncc56)nccc4c23)C1` [Ex-170, (6S)-4-(8-(1H-benzo[f]indazol-4-yl)-2-(((2R,7aS)-2-fluorotetrahydro-1H-pyrrolizin-7a(5H)-yl)methoxy)pyrido[4′,3′:4,5]thieno[2,3-d]pyrimidin-4-yl)-6-methyl-1,4-oxazepan-6-ol], the pIC50 at KRAS-G12D is 7.48; with AsPC-1 cells (2 hours compound incubation), 6.66; at KRAS-G12V, 7.48; on KRAS-WT it was 7.05.
As for `CN1CCc2cc3[nH]ncc3c(-c3nccc4c3sc3nc(OC[C@@]56CCCN5C[C@H](F)C6)nc(N5CCOC[C@@](C)(O)C5)c34)c21` [Ex-125, (6S)-4-(2-(((2R,7aS)-2-fluorotetrahydro-1H-pyrrolizin-7a(5H)-yl)methoxy)-8-(5-methyl-1,5,6,7-tetrahydropyrrolo[2,3-f]indazol-4-yl)pyrido[4′,3′:4,5]thieno[2,3-d]pyrimidin-4-yl)-6-methyl-1,4-oxazepan-6-ol], the negative-log IC50 (pIC50) at KRAS-G12D is 7.18; with AsPC-1 cells (KRAS-G12D, 2 hours) it was 5.99; on KRAS-G12V, 7.03; at KRAS-WT, 6.79.
The like results for `COc1cc2c(sc3nc(OC[C@@]45CCCN4C[C@H](F)C5)nc(N4CCOC[C@@](C)(O)C4)c32)c(-c2c(C(F)(F)F)c(C)cc3[nH]ncc23)n1` [Ex-27, (6S)-4-(2-(((2R,7aS)-2-fluorotetrahydro-1H-pyrrolizin-7a(5H)-yl)methoxy)-6-methoxy-8-(6-methyl-5-(trifluoromethyl)-1H-indazol-4-yl)pyrido[4′,3′:4,5]thieno[2,3-d]pyrimidin-4-yl)-6-methyl-1,4-oxazepan-6-ol] were, in that order, 6.71, 6.18, 6.66 and 6.10.
As to `C#Cc1c(F)ccc2cc3[nH]ncc3c(-c3nccc4c5c(N6CCOC[C@@](C)(O)C6)nc(OC[C@@]67CCCN6C[C@H](F)C7)nc5n(C)c34)c12` [Ex-25, (6S)-4-(8-(5-ethynyl-6-fluoro-1H-benzo[f]indazol-4-yl)-2-(((2R,7aS)-2-fluorotetrahydro-1H-pyrrolizin-7a(5H)-yl)methoxy)-9-methyl-9H-pyrido[4′,3′:4,5]pyrrolo[2,3-d]pyrimidin-4-yl)-6-methyl-1,4-oxazepan-6-ol], the pIC50 at KRAS-G12D is 7.21; with AsPC-1 cells (KRAS-G12D, 2 hours), 5.94; at KRAS-G12V it was 7.05; at KRAS-WT, 6.87.
In the same order, the values of `COC(=O)c1cc2[nH]ncc2c(-c2nccc3c2sc2nc(OC[C@@]45CCCN4C[C@H](F)C5)nc(N4CCOC[C@@](C)(O)C4)c23)c1C1CC1` [Ex-49, Methyl 5-cyclopropyl-4-(2-(((2R,7aS)-2-fluorotetrahydro-1H-pyrrolizin-7a(5H)-yl)methoxy)-4-((S)-6-hydroxy-6-methyl-1,4-oxazepan-4-yl)pyrido[4′,3′:4,5]thieno [2,3-d]pyrimidin-8-yl)-1H-indazole-6-carboxylate] are 7.40, 5.71, 7.23 and 7.13.
As for `C[C@@]1(O)COCCN(c2nc(OC[C@]3(CN4C[C@@H]5C[C@H]4CO5)CC3(F)F)nc3sc4c(-c5c(C6(F)CC6)c(Cl)cc6[nH]ncc56)nccc4c23)C1` [Ex-236, (6S)-4-(2-(((R)-1-(((15,4S)-2-oxa-5-azabicyclo[2.2.1]heptan-5-yl)methyl)-2,2-difluorocyclopropyl)methoxy)-8-(6-chloro-5-(1-fluorocyclopropyl)-1H-indazol-4-yl)pyrido[4′,3′:4,5]thieno[2,3-d]pyrimidin-4-yl)-6-methyl-1,4-oxazepan-6-ol], the pIC50 was 7.79 at KRAS-G12D, 6.62 in the experiment on AsPC-1 cells (2 hours compound incubation), 7.46 on KRAS-G12V and 6.92 on KRAS-WT.
Consider `C[C@@]1(O)COCCN(c2nc(OC[C@@]34CCCN3C[C@H](F)C4)nc3sc4c(-c5c(C6CC6)c(C#N)cc6[nH]ncc56)nccc4c23)C1` [Ex-51, 5-cyclopropy1-4-(2-(((2R,7aS)-2-fluorotetrahydro-1H-pyrrolizin-7a(5H)-yl)methoxy)-4-((S)-6-hydroxy-6-methyl-1,4-oxazepan-4-yl)pyrido[4′,3′:4,5]thieno [2,3-d]pyrimidin-8-yl)-1H-indazole-6-carbonitrile], for which the pIC50 at KRAS-G12D was 6.94; in the experiment on AsPC-1 cells (KRAS-G12D, 2 hours) it was 5.85; at KRAS-G12V, 6.85; on KRAS-WT it was 6.63.
As for `C[C@@]1(O)COCCN(c2nc(OC[C@@]34CCCN3C[C@H](F)C4)nc3sc4c(-c5c(C67CC(C6)C7)ccc6[nH]ncc56)nccc4c23)C1` [Ex-42, (6S)-4-(8-(5-(bicyclo[1.1.1]pentan-1-yl)-1H-indazol-4-yl)-2-(((2R,7aS)-2-fluorotetrahydro-1H-pyrrolizin-7a(5H)-yl)methoxy)pyrido[4′,3′:4,5]thi-eno[2,3-d]pyrimidin-4-yl)-6-methyl-1,4-oxazepan-6-ol], the pIC50 on KRAS-G12D was 6.87; in the experiment on AsPC-1 cells (KRAS-G12D, 2 hours) it was 5.86; at KRAS-G12V it was 6.84; on KRAS-WT, 6.54.
Consider `C[C@@]1(O)COCCN(c2nc(OC[C@]3(CN4[C@@H]5CC[C@H]4C[C@H](F)C5)CC3(F)F)nc3sc4c(-c5c(C6(F)CC6)c(Cl)cc6[nH]ncc56)nccc4c23)C1` [Ex-251, (6S)-4-(8-(6-chloro-5-(1-fluorocyclopropyl)-1H-indazol-4-yl)-2-(((R)-2,2-difluoro-1-(((1R,3S,5S)-3-fluoro-8-azabicyclo[3.2.1]octan-8-yl)methyl)cyclopropyl)metho-xy)pyrido[4′,3′:4,5]thieno[2,3-d]pyrimidin-4-yl)-6-methyl-1,4-oxazepan-6-ol], for which the pIC50 on KRAS-G12D was 7.28; in the experiment on AsPC-1 cells (2 hours compound incubation), 6.17; on KRAS-G12V, 6.96; on KRAS-WT, 6.31.
With `Cc1cc2[nH]ncc2c(-c2nccn3c2cc2nc(OC[C@@]45CCCN4C[C@H](F)C5)nc(N4CCOC[C@@](C)(O)C4)c23)c1C1CC1` [Ex-295, (S)-4-(9-(5-cyclopropyl-6-methyl-1H-indazol-4-yl)-2-(((2R,7aS)-2-fluorotetrahydro-1H-pyrrolizin-7a(5H)-yl)methoxy)pyrazino[1′,2′:1,5]pyrrolo[3,2-d]pyrimidin-4-yl)-6-methyl-1,4-oxazepan-6-ol], the pIC50 was 7.14 on KRAS-G12D; 5.72 in the experiment on AsPC-1 cells (KRAS-G12D, 2 hours); 7.01 at KRAS-G12V; 6.73 on KRAS-WT.
As to `Cn1c2nc(OC[C@@]34CCCN3C[C@H](F)C4)nc(N3CCOC[C@@](C)(O)C3)c2c2ccnc(-c3c(C4CC4)c(Cl)cc4[nH]ncc34)c21` (single isomer, unassigned) [Ex-2], the pIC50 is 7.45 on KRAS-G12D; 6.37 with AsPC-1 cells (KRAS-G12D, 2 hours); 7.43 at KRAS-G12V; 7.19 at KRAS-WT.
Consider `C[C@@H]1C[C@@H](COc2nc(N3CCOC[C@@](C)(O)C3)c3c(n2)sc2c(-c4c(C5CC5)c(C(F)(F)F)cc5[nH]ncc45)nccc23)N(C)C1` [Ex-83, (6S)-4-(8-(5-cyclopropyl-6-(trifluoromethyl)-1H-indazol-4-yl)-2-(((2S,4R)-1,4-dimethylpyrrolidin-2-yl)methoxy)pyrido[4′,3′:4,5]thi-eno[2,3-d]pyrimidin-4-yl)-6-methyl-1,4-oxazepan-6-ol], for which the pIC50 on KRAS-G12D was 7.10; with AsPC-1 cells (KRAS-G12D, 2 hours) it was 5.87; on KRAS-G12V, 6.99; on KRAS-WT it was 6.89.
Turning to `Cc1cc2[nH]ncc2c(-c2nccc3c2sc2nc(OC[C@@]45CCCN4C[C@H](F)C5)nc(N4CCCC5(CC(=O)N5)C4)c23)c1C(F)(F)F` (stereo partly drawn) [Ex-195, 6-(2-(((2R,7aS)-2-fluoro-tetrahydro-1H-pyrrolizin-7a(5H)-yl)methoxy)-8-(6-methyl-5-(trifluorometh-yl)-1H-indazol-4-yl)pyrido [4′,3′:4,5]thieno[2,3-d]pyrimidin-4-yl)-1,6-diaza-spiro[3.5]nonan-2-one], the negative-log IC50 (pIC50) is 7.12 on KRAS-G12D, 5.12 in the experiment on AsPC-1 cells (2 hours compound incubation), 7.11 at KRAS-G12V and 6.60 on KRAS-WT.

Values taken from patent US20260176289A1, “SMALL MOLECULE INHIBITORS OF KRAS PROTEINS” (Merck Sharp & Dohme LLC, priority 2022, published 2026).
